One compound from ChEMBL document CHEMBL1208699, “BACE-1 hydroxyethylamine inhibitors using novel edge-to-face interaction with Arg-296” (Bioorg Med Chem Lett, 2010) can be followed below.

Format in all cases: ADME, organism-based
Common to all, as to set-up: dose 1 mg/kg, route intravenous

Data set [1] can be described thus: Blood clearance in rat at 1 mg/kg, iv. The following applies: whole blood.
The nature of data set [2]: Volume of distribution at steady state in rat at 1 mg/kg, iv. The following applies: in vivo, read-out: Vdss.
Data set [3] can be described thus: Half life in rat at 1 mg/kg, iv. The following applies: in vivo.

One may read the clearance as the rate of elimination divided by the concentration. A lower clearance goes with inefficient removal. In general, half-life refers to the time needed for the level to fall by half in the phase considered. The low end stands for fast loss, the high end for slow loss. As to `CS(=O)(=O)N(c1ccccc1)c1cc(C(=O)N[C@@H](Cc2ccccc2)[C@H](O)CNCc2cccc(C(F)(F)F)c2)cc(C2CCCC2)c1`, the clearance in data set [1] was 76 mL/min/kg. Further, the Vd in data set [2] is 9.3 L/kg. The same compound showed a half-life in data set [3] of 42 min.
